# Assay results as given in US20240360178A1, “MACROCYCLIC IMMUNOMODULATORS” (Bristol-Myers Squibb Company, priority 2021, published 2024).
# Positions of bridges follow the written chain, without caps; N, C: chain ends. Non-standard residues stand in square brackets, D forms with d. Residues, ends and D or L forms follow the SMILES beside them. ξ: configuration not given here. Phe(3,4,5-F3) = N[C@@H](Cc1cc(F)c(F)c(F)c1)C(=O)O; Phe(4-COOH) = N[C@@H](Cc1ccc(C(=O)O)cc1)C(=O)O; Bip = N[C@@H](Cc1ccc(-c2ccccc2)cc1)C(=O)O; Phe(3-CN) = N#Cc1cccc(C[C@H](N)C(=O)O)c1; Phe(3-OMe) = COc1cccc(C[C@H](N)C(=O)O)c1; Phe(3-F) = N[C@@H](Cc1cccc(F)c1)C(=O)O; NMeF = CN[C@@H](Cc1ccccc1)C(=O)O; 3Pal = N[C@@H](Cc1cccnc1)C(=O)O; 4Pal = N[C@@H](Cc1ccncc1)C(=O)O; NMeA = CN[C@@H](C)C(=O)O; Dab = NCC[C@H](N)C(=O)O; Dap = NC[C@H](N)C(=O)O; ξS = NC(CO)C(=O)O; Sar = CNCC(=O)O
# Biological target: T1, human PD-1 (Jurkat-PD-1 cells) / PE-labeled human PD-L1-Ig (Homo sapiens, UniProt Q15116)
# T1 construct: expressed in transfected cells; host or cells: Jurkat cell line over-expressing human PD-1
# Test: Jurkat-PD-1 Cell Binding High-Content Screening Assay (CBA); Jurkat hPD1-PDL1 assay
# Conditions: Jurkat cell line over-expressing human PD-1; PE-labeled PD-L1-Ig 20 nM final; compound incubated 2 hours at 37° C.; read-out: Jurkat HPD1-PDL1 IC50
# Protocol: The ability of the compounds of formula (I) to bind to PD-1 was investigated using a Jurkat-PD-1 Cell Binding High-Content Screening Assay.
# Jurkat-PD-1 Cell Binding High-Content Screening Assay (CBA)
# Phycoerythrin (PE) was covalently linked to the Ig epitope tag of human PD-L1-Ig and fluorescently-labeled PD-L1-Ig was used for binding studies with a Jurkat cell line over-expressing human PD-1 (Jurkat-PD-1). Briefly, 8×10^3 Jurkat-hPD-1 cells were seeded into 384 well plates in 20 μL of DMEM supplemented with 10% fetal calf serum. 100 nL of compound was added to cells followed by incubation at 37° C. for 2 hours. Then, 5 μL of PE-labeled PD-L1-Ig (20 nM final), diluted in DMEM supplemented with 10% fetal calf serum. […] Data was collected and processed using a Cell Insight NXT High Content Imager and associated software.
# T1 sequence (Q15116 25-288): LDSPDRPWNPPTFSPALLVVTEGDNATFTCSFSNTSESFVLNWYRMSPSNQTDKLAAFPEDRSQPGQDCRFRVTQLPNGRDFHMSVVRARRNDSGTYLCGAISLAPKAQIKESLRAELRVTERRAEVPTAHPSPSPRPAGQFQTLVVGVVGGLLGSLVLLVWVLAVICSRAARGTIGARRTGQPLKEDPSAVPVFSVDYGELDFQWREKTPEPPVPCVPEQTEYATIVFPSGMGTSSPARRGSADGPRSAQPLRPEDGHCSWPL
row,Structure (SMILES),IC50
1,CC(C)C[C@@H]1NC(=O)[C@H](Cc2c[nH]c3ccccc23)NC(=O)[C@H](CC(=O)O)NC(=O)[C@H](Cc2ccc(O)cc2)NC(=O)[C@H](Cc2ccccc2)NC(=O)CSC[C@@H](C(=O)NCC(N)=O)NC(=O)[C@H](CO)NC(=O)[C@H](C(C)C)NC(=O)[C@H](CC(C)C)NC(=O)[C@H](CCCNC(=N)N)NC(=O)CN(C)C(=O)[C@H](C)N(C)C(=O)[C@H](CC(=O)O)NC(=O)[C@H](Cc2ccc(-c3ccccc3)cc2)NC1=O [Example 1237] ({CH2CO}-FYDWL[Bip]D[NMeA][Sar]RLVSCG-NH2; thioether N-14),0.52 µM
2,CC(C)C[C@@H]1NC(=O)[C@H](CC(N)=O)NC(=O)CN(C)C(=O)[C@H](C)N(C)C(=O)[C@H](C(C)C)NC(=O)[C@H](Cc2ccc(-c3ccccc3)cc2)NC(=O)[C@H](C(C)C)NC(=O)[C@H](Cc2c[nH]c3ccccc23)NC(=O)[C@H](CC(=O)O)NC(=O)[C@H](Cc2ccc(O)cc2)NC(=O)[C@H](Cc2ccccc2)NC(=O)CSC[C@@H](C(=O)N[C@@H](C)C(N)=O)NC(=O)[C@H](CO)NC(=O)[C@H](C(C)C)NC1=O [Example 1149] ({CH2CO}-FYDWV[Bip]V[NMeA][Sar]NLVSCA-NH2; thioether N-14),0.69 µM
3,CC(C)C[C@@H]1NC(=O)[C@H](Cc2c[nH]c3ccccc23)NC(=O)[C@H](CC(=O)O)NC(=O)[C@H](Cc2ccc(O)cc2)NC(=O)[C@H](Cc2ccccc2)NC(=O)CSC[C@@H](C(=O)NCC(N)=O)NC(=O)[C@H](CO)NC(=O)[C@H](C(C)C)NC(=O)[C@H](CC(C)C)NC(=O)[C@H](CC(N)=O)NC(=O)CN(C)C(=O)[C@H](C)N(C)C(=O)[C@H](C(C)C)NC(=O)[C@H](Cc2ccc(-c3ccccc3)cc2)NC1=O [Example 1001] ({CH2CO}-FYDWL[Bip]V[NMeA][Sar]NLVSCG-NH2; thioether N-14),0.92 µM
4,CC(C)C[C@@H]1NC(=O)[C@H](CCCNC(=N)N)NC(=O)[C@H](Cc2ccccc2)N(C)C(=O)[C@H](C)N(C)C(=O)[C@H](CCCNC(=N)N)NC(=O)[C@H](Cc2ccc(-c3ccccc3)cc2)NC(=O)[C@H](C(C)C)NC(=O)[C@H](Cc2c[nH]c3ccccc23)NC(=O)[C@H](CC(=O)O)NC(=O)[C@H](Cc2ccc(C(=O)O)cc2)NC(=O)[C@H](CCC(N)=O)NC(=O)CSC[C@@H](C(=O)NCC(N)=O)NC(=O)[C@H](CO)NC(=O)[C@H](C(C)C)NC1=O [Example 1297] ({CH2CO}-Q[Phe(4-COOH)]DWV[Bip]R[NMeA][NMeF]RLVSCG-NH2; thioether N-14),0.42 µM
5,CC(C)C[C@@H]1NC(=O)[C@H](CCCNC(=N)N)NC(=O)[C@H](Cc2ccccc2)N(C)C(=O)[C@H](CCN)NC(=O)[C@H](CCCNC(=N)N)NC(=O)[C@H](Cc2ccc(-c3ccccc3)cc2)NC(=O)[C@H](C(C)C)NC(=O)[C@H](Cc2c[nH]c3ccccc23)NC(=O)[C@H](CC(=O)O)NC(=O)[C@H](Cc2ccc(O)cc2)NC(=O)[C@H](Cc2ccccc2)NC(=O)CSC[C@@H](C(=O)NCC(N)=O)NC(=O)[C@H](CO)NC(=O)[C@H](C(C)C)NC1=O [Example 1255] ({CH2CO}-FYDWV[Bip]R[Dab][NMeF]RLVSCG-NH2; thioether N-14),0.43 µM
6,"CC(C)C[C@@H]1NC(=O)[C@H](Cc2c[nH]c3ccccc23)NC(=O)[C@H](CC(=O)O)NC(=O)[C@H](Cc2cc(F)c(F)c(F)c2)NC(=O)[C@H](Cc2ccccc2)NC(=O)CSC[C@@H](C(=O)N[C@@H](C)C(N)=O)NC(=O)[C@H](CO)NC(=O)[C@H](C(C)C)NC(=O)[C@H](CC(C)C)NC(=O)[C@H](CC(N)=O)NC(=O)CN(C)C(=O)[C@H](C)N(C)C(=O)[C@H](C(C)C)NC(=O)[C@H](Cc2ccc(-c3ccccc3)cc2)NC1=O [Example 1146] ({CH2CO}-F[Phe(3,4,5-F3)]DWL[Bip]V[NMeA][Sar]NLVSCA-NH2; thioether N-14)",0.65 µM
7,CC(C)C[C@@H]1NC(=O)[C@H](C)NC(=O)CN(C)C(=O)[C@H](C)N(C)C(=O)[C@H](CCC(=O)O)NC(=O)[C@H](Cc2ccc(-c3ccccc3)cc2)NC(=O)[C@H](CC(C)C)NC(=O)[C@H](Cc2c[nH]c3ccccc23)NC(=O)[C@H](CC(=O)O)NC(=O)[C@H](Cc2ccc(O)cc2)NC(=O)[C@H](Cc2ccccc2)NC(=O)CSC[C@@H](C(=O)N[C@@H](C)C(N)=O)NC(=O)[C@H](CO)NC(=O)[C@H](C(C)C)NC1=O [Example 1164] ({CH2CO}-FYDWL[Bip]E[NMeA][Sar]ALVSCA-NH2; thioether N-14),0.9 µM

# These reach a lower IC50. Values come first.
row,IC50,Structure (SMILES)
1,0.4 µM,CC(C)C[C@@H]1NC(=O)[C@H](CCCNC(=N)N)NC(=O)[C@H](Cc2ccccc2)N(C)C(=O)[C@H](C)N(C)C(=O)[C@H](CCCNC(=N)N)NC(=O)[C@H](Cc2ccc(-c3ccccc3)cc2)NC(=O)[C@H](C(C)C)NC(=O)[C@H](Cc2c[nH]c3ccccc23)NC(=O)[C@H](CC(=O)O)NC(=O)[C@H](Cc2ccc(O)cc2)NC(=O)[C@H](Cc2ccccc2)NC(=O)CSC[C@@H](C(=O)N[C@@H](C)C(N)=O)NC(=O)[C@H]([C@@H](C)O)NC(=O)[C@H](C(C)C)NC1=O [Example 1358] ({CH2CO}-FYDWV[Bip]R[NMeA][NMeF]RLVTCA-NH2; thioether N-14)
2,0.28 µM,CC(C)C[C@@H]1NC(=O)[C@H](CCCCN)NC(=O)[C@H](Cc2ccccc2)N(C)C(=O)[C@H](C)N(C)C(=O)[C@H](CCCNC(=N)N)NC(=O)[C@H](Cc2ccc(-c3ccccc3)cc2)NC(=O)[C@H](C(C)C)NC(=O)[C@H](Cc2c[nH]c3ccccc23)NC(=O)[C@H](CC(=O)O)NC(=O)[C@H](Cc2ccc(O)cc2)NC(=O)[C@H](CC(N)=O)NC(=O)CSC[C@@H](C(=O)N[C@@H](C)C(N)=O)NC(=O)[C@H]([C@@H](C)O)NC(=O)[C@H](C(C)C)NC1=O [Example 1385] ({CH2CO}-NYDWV[Bip]R[NMeA][NMeF]KLVTCA-NH2; thioether N-14)
3,0.28 µM,CC(C)C[C@@H]1NC(=O)[C@H](Cc2c[nH]c3ccccc23)NC(=O)[C@H](CC(=O)O)NC(=O)[C@H](Cc2ccc(O)cc2)NC(=O)[C@H](Cc2ccccc2)NC(=O)CSC[C@@H](C(=O)N[C@@H](C)C(N)=O)NC(=O)[C@H]([C@@H](C)O)NC(=O)[C@H](C(C)C)NC(=O)[C@H](CC(C)C)NC(=O)[C@H](CCN)NC(=O)[C@H]2CCCN2C(=O)[C@H](CN)NC(=O)[C@H](C(C)C)NC(=O)[C@H](Cc2ccc(-c3ccccc3)cc2)NC1=O [Example 1409] ({CH2CO}-FYDWL[Bip]V[Dap][dP][Dab]LVTCA-NH2; thioether N-14)
4,0.11 µM,CC(C)C[C@@H]1NC(=O)[C@H](Cc2c[nH]c3ccccc23)NC(=O)[C@H](CC(=O)O)NC(=O)[C@H](Cc2ccc(O)cc2)NC(=O)[C@H](Cc2ccccc2)NC(=O)CSC[C@@H](C(=O)N[C@@H](C)C(N)=O)NC(=O)[C@H]([C@@H](C)O)NC(=O)[C@H](C(C)C)NC(=O)[C@H](CC(C)C)NC(=O)[C@H](CC(N)=O)NC(=O)[C@H]2CCCN2C(=O)[C@H](C)N(C)C(=O)[C@H](C(C)C)NC(=O)[C@H](Cc2ccc(-c3ccccc3)cc2)NC1=O [Example 1050] ({CH2CO}-FYDWL[Bip]V[NMeA][dP]NLVTCA-NH2; thioether N-14)
5,0.09 µM,CC(C)C[C@@H]1NC(=O)[C@H](Cc2c[nH]c3ccccc23)NC(=O)[C@H](CC(=O)O)NC(=O)[C@H](Cc2cccc(F)c2)NC(=O)[C@H](Cc2ccccc2)NC(=O)CSC[C@@H](C(=O)N[C@@H](C)C(N)=O)NC(=O)[C@H](CO)NC(=O)[C@H](C(C)C)NC(=O)[C@H](CC(C)C)NC(=O)[C@H](CC(N)=O)NC(=O)[C@H]2CCCN2C(=O)[C@H](C)N(C)C(=O)[C@H](C(C)C)NC(=O)[C@H](Cc2ccc(-c3ccccc3)cc2)NC1=O [Example 1047] ({CH2CO}-F[Phe(3-F)]DWL[Bip]V[NMeA][dP]NLVSCA-NH2; thioether N-14)
6,0.08 µM,CC(C)C[C@@H]1NC(=O)[C@H](Cc2c[nH]c3ccccc23)NC(=O)[C@H](CC(=O)O)NC(=O)[C@H](Cc2ccc(O)cc2)NC(=O)[C@H](Cc2ccccc2)NC(=O)CSC[C@@H](C(=O)N[C@@H](C)C(N)=O)NC(=O)C(CO)NC(=O)[C@H](C(C)C)NC(=O)[C@H](CC(C)C)NC(=O)[C@H](CCN)NC(=O)[C@H]2CCCN2C(=O)[C@H](CCN)NC(=O)[C@H](C(C)C)NC(=O)[C@H](Cc2ccc(-c3ccccc3)cc2)NC1=O (stereo partly drawn) [Example 1415] ({CH2CO}-FYDWL[Bip]V[Dab][dP][Dab]LV[ξS]CA-NH2; thioether N-14)
7,0.05 µM,COc1cccc(C[C@@H]2NC(=O)[C@H](CC(=O)O)NC(=O)[C@H](Cc3cccc(C#N)c3)NC(=O)[C@H](Cc3ccncc3)NC(=O)CSC[C@@H](C(=O)N[C@@H](C)C(N)=O)NC(=O)[C@H](CO)NC(=O)[C@H](C(C)C)NC(=O)[C@H](CC(C)C)NC(=O)[C@H](CC(N)=O)NC(=O)CN(C)C(=O)[C@H](C)N(C)C(=O)[C@H](C(C)C)NC(=O)[C@H](Cc3ccc(-c4ccccc4)cc3)NC(=O)[C@H](CC(C)C)NC2=O)c1 [Example 1392] ({CH2CO}-[4Pal][Phe(3-CN)]D[Phe(3-OMe)]L[Bip]V[NMeA][Sar]NLVSCA-NH2; thioether N-14)
8,0.04 µM,CC(C)C[C@@H]1NC(=O)[C@H](Cc2c[nH]c3ccccc23)NC(=O)[C@H](CC(=O)O)NC(=O)[C@H](Cc2ccc(C(=O)O)cc2)NC(=O)[C@H](Cc2cccnc2)NC(=O)CSC[C@@H](C(=O)N[C@@H](C)C(N)=O)NC(=O)[C@H](CO)NC(=O)[C@H](C(C)C)NC(=O)[C@H](CC(C)C)NC(=O)[C@H](CC(N)=O)NC(=O)[C@H]2CCCN2C(=O)[C@H](C)N(C)C(=O)[C@H](C(C)C)NC(=O)[C@H](Cc2ccc(-c3ccccc3)cc2)NC1=O [Example 1025] ({CH2CO}-[3Pal][Phe(4-COOH)]DWL[Bip]V[NMeA][dP]NLVSCA-NH2; thioether N-14)
